Reference: patent US20200276211A1, “COMPOUNDS FOR TREATING NEAR VISION DISORDERS” (VIEWPOINT THERAPEUTICS, INC., priority 2017, published 2020)
Like-named read-outs stand apart in the source and are kept apart here.

Tests used:
[1] = target: T1, recombinant alpha-crystallin core domain (ACD) of cryAB protein (residues 68-153) (Homo sapiens, UniProt P02511); test: Differential scanning fluorimetry (DSF), protein thermal stability change; assay type: binding; conditions: SYPRO orange
T1 construct: alpha-crystallin core domain (ACD) of cryAB protein (residues 68-153)
T1 sequence (P02511 68-153): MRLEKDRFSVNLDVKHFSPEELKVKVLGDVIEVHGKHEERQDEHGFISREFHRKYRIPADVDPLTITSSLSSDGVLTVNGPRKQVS
Experimental: 2.4 μL of 10 mM compound stocks in DMSO were added to the wells of a 96-well plate containing 51.6 μL of 7 μM recombinant alpha-crystallin core domain (ACD) of cryAB protein (residues 68-153) in DSF buffer (50 mM Tris-HCl, 100 mM NaCl, 0.5 mM ZnCl2, 0.5 mM MgCl2, 0.5 mM CaCl2, pH8.0), and subsequently 6 μL 10× SYPRO orange protein gel stain (Invitrogen) was added for a final volume of 60 μL per well. Each well was mixed, and then 10 μL was added in quadruplicates to a MicroAmp Optical 384-well reaction plate with barcode (ThermoFisher). The plate was sealed with a MicroAmp Optical adhesive film (ThermoFisher), centrifuged at 1,000×g for 2 min, and loaded into a QuantStudio 6 Flex real-time PCR system (Applied Biosystems). The DSF assay was performed by heating the plate from 30° C. to 80° C. with 0.5° C. increments per cycle over 100 cycles. Each cycle was held for 90 s after reaching the temperature, and the fluorescent signal (520 nm excitation/558 nm emission) was measured.
The data curve was fitted using a Boltzmann model (GraphPad Prism Version 7) for a fitting range from 25° C. to the temperature at which the fluorescence signal was highest plus 3-5° C. The Tm was determined to be the temperature at the midpoint between the highest and lowest fluorescent signals on the curve. Results of the assay for compounds 1.18, 1.21 and 1.25 are in the following table and FIG. 1.

[2] = in water; cited from earlier work
Plasma stability (human) = assay type: in vitro ADME; conditions: 37° C., read-out: Plasma stability (human) t ½
Experimental: (§1) A 4 mM compound stock solution was prepared by dissolving the appropriate amount of compound in MeOH, then a […] was prepared by adding 2 μL aforementioned 4 mM stock solution in 78 μL DMSO. A 10 mM control stock solution was prepared by dissolving the appropriate amount of tetracaine in DMSO, then a 10 μM control working solution was prepared by diluting the stock in DMSO. A 1 mg/ml terfenadine mixed with 2 mg/mL tolbutamide stock solution was prepared by dissolving an appropriate amount of each in DMSO, then a 1 ng/mL terfenadine mixed with 2 ng/mL tolbutamide internal standard solution was prepared by diluting the stock solution in methanol:acetonitrile (1:1, v/v). Both stock and internal standard solutions were stored at 4° C. Whole blood was centrifuged (obtained from in life group or donors) at 4000 rpm at 4° C. for 15 min to obtain plasma. Plasma was stored at −80° C. for future use. Before use, plasma was pre-warmed at 37° C. in a water bath for 15 min (500 μL per compound or control). After warming, 5 μL compound or control was added into 495 μL plasma, then vortexed to mix. […] The MS detection was performed using a Sciex API 4000 Qtrap and 6500 Plus instrument, and each compound was analyzed by reverse phase HPLC.

[3] = Plasma stability (rabbit); assay type: in vitro ADME; conditions: 37° C., read-out: Plasma stability (rabbit) t ½
Experimental: as §1

[4] = Chemical stability in PBS buffer; assay type: physicochemical
Experimental: 10 mM compound working solutions were made by adding 10 μL of a 50 mM DMSO stock solution in 40 μL methanol. To make 20 μM compound working solutions, 1 μL of a 10 mM stock solution is added to 499 μL of methanol. Internal standard and quenching solutions were prepared by dissolving 1 mg/mL of terfenadine or tolbutamide in appropriate amounts of DMSO. A quenching solution was prepared containing 25 ng/ml terfenadine plus 50 ng/ml tolbutamide by diluting both stock solutions together in a 1:1 mixture of methanol:acetonitrile. Phosphate buffered saline (PBS) solutions at pH5 and pH7 were prepared by adjusting the pH of stock PBS with concentrated hydrochloric acid. To tubes labeled with a pre-determined time point (0, 5, 15, 30, 60, 120 min) was added 2 μL of 20 μM compound working solution. In each tube, 38 μL of PBS buffer was added to the vial, vortexed, and incubated at 37° C. for the corresponding time. After incubation, 300 μL of the quenching solution containing internal standard was added to the tube and vortexed to mix. The sample was centrifuged at 4000 rpm for 15 min, and 100 μL of supernatant transferred to a 0.65 ml tube for LC/MS analysis. Each compound and timepoint was analyzed by reverse phase HPLC with MS detection performed using a Sciex API 4500 Qtrap.

[5] = Solubility remark in amyloid disaggregation assay; assay type: physicochemical; conditions: assay solution, 5% DMSO
Experimental: The procedure used to evaluate disassembly of amyloids in ex vivo cataractous solutions was adapted from Chemerovski-Glikman et al., Scientific Reports 8, Article number: 9341 (2018). Nuclear and cortical lens tissue from human donors (92F, 96M) was homogenized in PBS with protease inhibitor for 60 seconds on ice. The protein concentration of the lysate was measured by Bicinchoninic Acid Assay (Pierce BCA Protein Assay Kit, ThermoFisher), and then the lysate was diluted to a total protein concentration of 0.075 mg/mL. Thioflavin T dye (Sigma-Aldrich) was added to a final concentration of 1 μM. […] After incubation with orbital shaking at 37° C., the fluorescence was read every two hours for 94 hours at an excitation wavelength of 440 nm and emission wavelength of 485 nm. Results of the assay for compounds 1.18, 1.21, 1.25 or control are in FIG. 3.

[6] = PBS pH 5, 37° C., read-out: Chem stability (t ½ @ pH = 5)
[7] = PBS pH 7, 37° C., read-out: Chem stability (t ½ @ pH = 7)

SMILES	Δ Tm (° C.) Mean (n = 2) [1] [°C]	aqueous solubility [2]	half-life at 0.1 µM (Plasma stability (human)) [h]	half-life at 0.1 µM [3] [h]	half-life at 1 µM [4, 6] [h]	half-life at 1 µM [4, 7] [h]	solubility (in words) [5]
C[C@H](CCCC(C)(C)O)[C@H]1CC[C@H]2[C@@H]3CC=C4C[C@@H](OC(=O)CC[C@H](N)C(=O)O)CC[C@]4(C)[C@H]3CC[C@]12C [Compound 1.21]	−1.7	–	–	–	–	–	–
CC(C)CCC[C@@H](C)[C@H]1CC[C@H]2[C@@H]3CC=C4C[C@@H](O)CC[C@]4(C)[C@H]3CC[C@]12C [cholesterol]	–	less than 0.5 mg/100 mL	–	–	–	–	–
C[C@H](CCCC(C)(C)O)[C@H]1CC[C@H]2[C@@H]3CC=C4C[C@@H](OC(=O)OCC[N+](C)(C)C)CC[C@]4(C)[C@H]3CC[C@]12C.[I-] [Compound 1.25]	−1.8	–	> 8.33	> 8.33	> 8.33	> 8.33	–
C[C@H](CCCC(C)(C)O)[C@H]1CC[C@H]2[C@@H]3CC=C4C[C@@H](OC(=O)CCC(=O)O)CC[C@]4(C)[C@H]3CC[C@]12C [Compound 1.18]	−5.7	–	> 8.33	> 8.33	> 8.33	> 8.33	limited solubility
